Measured values reported in patent publication US10420341B2, “Herbicidal phenylpyrimidines” (BASF SE, priority 2015, dated 2019).

Assays:
APESV = assay: greenhouse pre-emergence herbicidal test; type: in vivo, Apera spica-venti; settings: pre-emergence method, scale from 0 to 100
Description: (§1) The seeds of the test plants were sown separately for each species. For the pre-emergence treatment, the active ingredients, which had been suspended or emulsified in water, were applied directly after sowing by means of finely distributing nozzles. The containers were irrigated gently to promote germination and growth and subsequently covered with transparent plastic hoods until the plants had rooted. This cover caused uniform germination of the test plants, unless this had been impaired by the active ingredients. Depending on the species, the plants were kept at 10-25° C. or 20-35° C., respectively. The test period extended over 2 to 4 weeks. During this time, the plants were tended, and their response to the individual treatments was evaluated. Evaluation was carried out using a scale from 0 to 100. 100 means no emergence of the plants, or complete destruction of at least the aerial moieties, and 0 means no damage, or normal course of growth. […] The plants used in the greenhouse experiments were of the following species: [table]

AVEFA = assay: greenhouse post-emergence herbicidal test; type: in vivo, Avena fatua; settings: post-emergence method, scale from 0 to 100
Description: (§2) The seeds of the test plants were sown separately for each species. For the post-emergence treatment, the test plants were first grown to a height of 3 to 15 cm, depending on the plant habit, and only then treated with the active ingredients which had been suspended or emulsified in water. For this purpose, the test plants were either sown directly and grown in the same containers, or they were first grown separately as seedlings and transplanted into the test containers a few days prior to treatment. Depending on the species, the plants were kept at 10-25° C. or 20-35° C., respectively. The test period extended over 2 to 4 weeks. During this time, the plants were tended, and their response to the individual treatments was evaluated. Evaluation was carried out using a scale from 0 to 100. 100 means no emergence of the plants, or complete destruction of at least the aerial moieties, and 0 means no damage, or normal course of growth. […] The plants used in the greenhouse experiments were of the following species: [table]

ECHCG [1] = assay: greenhouse pre-emergence herbicidal test; type: in vivo, Echinocloa crus-galli; settings: pre-emergence method, scale from 0 to 100
Description: as §1

ALOMY = assay: greenhouse post-emergence herbicidal test; type: in vivo, Alopercurus myosuroides; settings: post-emergence method, scale from 0 to 100
Description: as §2

ECHCG [2] = assay: greenhouse post-emergence herbicidal test; type: in vivo, Echinocloa crus-galli; settings: post-emergence method, application rate 1000 g/ha, scale from 0 to 100
Description: as §2

Compound | herbicidal activity against APESV (APESV; application rate 1000 g/ha) | herbicidal activity against AVEFA (AVEFA; application rate 1000 g/ha) | herbicidal activity against ECHCG (ECHCG [1]; application rate 1000 g/ha) | herbicidal activity against ALOMY (ALOMY; application rate 1000 g/ha) | herbicidal activity against APESV (APESV; application rate 500 g/ha) | herbicidal activity against AVEFA (AVEFA; application rate 500 g/ha) | herbicidal activity against ALOMY (ALOMY; application rate 500 g/ha) | herbicidal activity against ECHCG (ECHCG [1]; application rate 500 g/ha) | herbicidal activity against ECHCG (ECHCG [2])
COC(=O)c1nc(C2CC2)ncc1-c1c(F)cc(F)cc1Br [example 214] | very good (a very good herbicidal activity is given at values of at least 85) | very good (a very good herbicidal activity is given at values of at least 85) | very good (a very good herbicidal activity is given at values of at least 85) | very good (a very good herbicidal activity is given at values of at least 85) |  |  |  |  | 
N#Cc1cc(F)ccc1-c1cnc(C2CC2)nc1C(=O)O [example 157] | very good (a very good herbicidal activity is given at values of at least 85) | very good (a very good herbicidal activity is given at values of at least 85) |  | very good (a very good herbicidal activity is given at values of at least 85) |  |  |  |  | 
COC(=O)c1nc(C2CC2)ncc1-c1ccc(F)cc1C#N [example 220] |  |  |  |  | very good (a very good herbicidal activity is given at values of at least 85) | very good (a very good herbicidal activity is given at values of at least 85) | very good (a very good herbicidal activity is given at values of at least 85) |  | 
Cc1ccc(C)c(-c2cnc(C3CC3)nc2C(=O)O)c1 [example 165] |  |  |  |  | very good (a very good herbicidal activity is given at values of at least 85) | very good (a very good herbicidal activity is given at values of at least 85) | very good (a very good herbicidal activity is given at values of at least 85) |  | 
COC(=O)c1nc(C2CC2)ncc1-c1cc(F)c(F)cc1Br [example 215] |  |  |  |  | very good (a very good herbicidal activity is given at values of at least 85) | very good (a very good herbicidal activity is given at values of at least 85) | very good (a very good herbicidal activity is given at values of at least 85) | very good (a very good herbicidal activity is given at values of at least 85) | 
CC(C)OC(=O)c1nc(C2CC2)ncc1-c1ccccc1Cl [example 252] |  | very good (a very good herbicidal activity is given at values of at least 85) | very good (a very good herbicidal activity is given at values of at least 85) | very good (a very good herbicidal activity is given at values of at least 85) |  |  |  |  | 
COC(=O)c1nc(C2CC2)ncc1-c1c(Br)ccc(F)c1F [example 197] | very good (a very good herbicidal activity is given at values of at least 85) | very good (a very good herbicidal activity is given at values of at least 85) | very good (a very good herbicidal activity is given at values of at least 85) | very good (a very good herbicidal activity is given at values of at least 85) |  |  |  |  | 
COC(=O)c1nc(C2CC2)ncc1-c1c(Cl)cc(Cl)cc1Cl [example 209] | very good (a very good herbicidal activity is given at values of at least 85) | very good (a very good herbicidal activity is given at values of at least 85) |  | very good (a very good herbicidal activity is given at values of at least 85) |  |  |  |  | 
COc1cccc(Cl)c1-c1cnc(C2CC2)nc1C(=O)O [example 178] |  |  |  |  | very good (a very good herbicidal activity is given at values of at least 85) | good (A good herbicidal activity is given at values of at least 70) | good (A good herbicidal activity is given at values of at least 70) | very good (a very good herbicidal activity is given at values of at least 85) | 
O=C(NO)c1nc(C2CC2)ncc1-c1ccccc1Cl [example 290] |  |  |  |  | very good (a very good herbicidal activity is given at values of at least 85) | very good (a very good herbicidal activity is given at values of at least 85) | very good (a very good herbicidal activity is given at values of at least 85) | very good (a very good herbicidal activity is given at values of at least 85) | 
O=C(O)c1nc(C2CC2)ncc1-c1c(F)cc(F)cc1F [example 134] |  |  |  |  | very good (a very good herbicidal activity is given at values of at least 85) | very good (a very good herbicidal activity is given at values of at least 85) | very good (a very good herbicidal activity is given at values of at least 85) | very good (a very good herbicidal activity is given at values of at least 85) | 
O=C(O)c1nc(C2CC2)ncc1-c1c(Cl)cc(Cl)cc1Cl [example 149] | very good (a very good herbicidal activity is given at values of at least 85) | very good (a very good herbicidal activity is given at values of at least 85) |  | very good (a very good herbicidal activity is given at values of at least 85) |  |  |  |  | 
COC(=O)c1nc(C2CC2)ncc1-c1c(F)cc(F)cc1F [example 193] |  |  |  |  | very good (a very good herbicidal activity is given at values of at least 85) | very good (a very good herbicidal activity is given at values of at least 85) | very good (a very good herbicidal activity is given at values of at least 85) | very good (a very good herbicidal activity is given at values of at least 85) | 
O=C(O)c1nc(C2CC2)ncc1-c1ccc(F)cc1F [example 133] |  |  |  |  | very good (a very good herbicidal activity is given at values of at least 85) | very good (a very good herbicidal activity is given at values of at least 85) | very good (a very good herbicidal activity is given at values of at least 85) | very good (a very good herbicidal activity is given at values of at least 85) | 
COC(=O)c1nc(C2CC2)ncc1-c1ccc(F)cc1F [example 192] |  |  |  |  | very good (a very good herbicidal activity is given at values of at least 85) | very good (a very good herbicidal activity is given at values of at least 85) | very good (a very good herbicidal activity is given at values of at least 85) | very good (a very good herbicidal activity is given at values of at least 85) | 
O=C(O)c1nc(C2CC2)ncc1-c1ccccc1Cl [example 141] |  |  |  |  | very good (a very good herbicidal activity is given at values of at least 85) | very good (a very good herbicidal activity is given at values of at least 85) | very good (a very good herbicidal activity is given at values of at least 85) | very good (a very good herbicidal activity is given at values of at least 85) | 
O=C(O)c1nc(C2CC2)ncc1-c1c(Cl)cccc1C(F)(F)F [example 304] | very good (a very good herbicidal activity is given at values of at least 85) | very good (a very good herbicidal activity is given at values of at least 85) |  | very good (a very good herbicidal activity is given at values of at least 85) |  |  |  |  | very good (a very good herbicidal activity is given at values of at least 85)
